Like-named read-outs stand apart in the source and are kept apart here.
Assays:
Test in all cases: TGFα-shedding assay-based GPCR screening with chimeric Gα subunit proteins
Assay type in all cases: cell-based
348 GPCRs [1] = target: T1, 348 GPCRs (Homo sapiens, UniProt Q49SQ1); details: 10µM, Favipiravir 100μM
T1 construct: expressed in transfected cells; host or cells: HEK293A
T1 sequence (Q49SQ1 1-333): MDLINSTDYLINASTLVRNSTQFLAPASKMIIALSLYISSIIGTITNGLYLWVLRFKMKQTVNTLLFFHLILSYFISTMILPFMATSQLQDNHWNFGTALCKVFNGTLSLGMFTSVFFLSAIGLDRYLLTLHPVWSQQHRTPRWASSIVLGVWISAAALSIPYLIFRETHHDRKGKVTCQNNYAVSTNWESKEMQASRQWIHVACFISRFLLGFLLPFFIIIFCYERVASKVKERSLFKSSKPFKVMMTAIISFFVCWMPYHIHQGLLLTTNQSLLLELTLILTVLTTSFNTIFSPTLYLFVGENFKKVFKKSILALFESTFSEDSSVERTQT

348 GPCRs [2] = target: T2, 348 GPCRs (Homo sapiens, UniProt Q6DWJ6); details: 10µM, Favipiravir 100μM
T2 construct: expressed in transfected cells; host or cells: HEK293A
T2 sequence (Q6DWJ6 1-353): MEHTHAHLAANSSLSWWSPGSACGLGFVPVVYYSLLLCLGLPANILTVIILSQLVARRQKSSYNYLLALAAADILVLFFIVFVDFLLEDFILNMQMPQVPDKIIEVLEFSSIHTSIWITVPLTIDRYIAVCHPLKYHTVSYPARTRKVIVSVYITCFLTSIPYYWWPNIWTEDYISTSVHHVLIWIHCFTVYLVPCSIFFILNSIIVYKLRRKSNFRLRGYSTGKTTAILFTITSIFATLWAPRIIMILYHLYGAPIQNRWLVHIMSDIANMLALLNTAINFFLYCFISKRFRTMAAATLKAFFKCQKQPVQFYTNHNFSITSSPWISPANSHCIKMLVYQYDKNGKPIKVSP

348 GPCRs [3] = target: 348 GPCRs (Homo sapiens, UniProt P21728); details: 10µM, Favipiravir 100μM
348 GPCRs [4] = target: T3, 348 GPCRs (Homo sapiens, UniProt P25101); details: 10µM, Favipiravir 100μM
T3 construct: expressed in transfected cells; host or cells: HEK293A
T3 sequence (P25101 21-427): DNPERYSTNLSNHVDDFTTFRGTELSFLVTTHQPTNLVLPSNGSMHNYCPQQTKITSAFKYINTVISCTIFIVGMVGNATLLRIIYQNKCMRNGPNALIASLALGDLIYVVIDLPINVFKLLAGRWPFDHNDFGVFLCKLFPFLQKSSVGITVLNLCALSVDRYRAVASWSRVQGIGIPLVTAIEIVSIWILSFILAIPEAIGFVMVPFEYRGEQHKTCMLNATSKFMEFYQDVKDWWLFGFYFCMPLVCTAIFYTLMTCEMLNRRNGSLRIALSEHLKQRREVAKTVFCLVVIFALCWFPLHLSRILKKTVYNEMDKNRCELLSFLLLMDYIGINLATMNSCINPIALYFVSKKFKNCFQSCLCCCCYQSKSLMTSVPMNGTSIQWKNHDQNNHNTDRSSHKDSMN

348 GPCRs [5] = target: T4, 348 GPCRs (Homo sapiens, UniProt Q9UKP6); details: 10µM, Favipiravir 100μM
T4 construct: expressed in transfected cells; host or cells: HEK293A
T4 sequence (Q9UKP6 1-389): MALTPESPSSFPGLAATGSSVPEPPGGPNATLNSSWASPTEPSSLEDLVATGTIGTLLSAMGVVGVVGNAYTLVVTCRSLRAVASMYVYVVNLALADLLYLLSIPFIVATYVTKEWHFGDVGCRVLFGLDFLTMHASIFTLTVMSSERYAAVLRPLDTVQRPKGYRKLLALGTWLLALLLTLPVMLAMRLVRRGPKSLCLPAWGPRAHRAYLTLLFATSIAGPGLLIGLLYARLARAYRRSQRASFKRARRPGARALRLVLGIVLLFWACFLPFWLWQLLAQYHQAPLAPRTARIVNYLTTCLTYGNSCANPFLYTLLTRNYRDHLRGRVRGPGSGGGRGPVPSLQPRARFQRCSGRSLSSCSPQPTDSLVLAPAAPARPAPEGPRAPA

348 GPCRs [6] = target: T5, 348 GPCRs (Homo sapiens, UniProt Q9BZJ7)
T5 construct: expressed in transfected cells; host or cells: HEK293A

348 GPCRs [7] = target: T6, 348 GPCRs (Homo sapiens, UniProt Q92847); details: 10µM, Favipiravir 100μM
T6 construct: expressed in transfected cells; host or cells: HEK293A

348 GPCRs [8] = target: T7, 348 GPCRs (Homo sapiens, UniProt P29371); details: 10µM, Favipiravir 100μM
T7 construct: expressed in transfected cells; host or cells: HEK293A
T7 sequence (P29371 1-465): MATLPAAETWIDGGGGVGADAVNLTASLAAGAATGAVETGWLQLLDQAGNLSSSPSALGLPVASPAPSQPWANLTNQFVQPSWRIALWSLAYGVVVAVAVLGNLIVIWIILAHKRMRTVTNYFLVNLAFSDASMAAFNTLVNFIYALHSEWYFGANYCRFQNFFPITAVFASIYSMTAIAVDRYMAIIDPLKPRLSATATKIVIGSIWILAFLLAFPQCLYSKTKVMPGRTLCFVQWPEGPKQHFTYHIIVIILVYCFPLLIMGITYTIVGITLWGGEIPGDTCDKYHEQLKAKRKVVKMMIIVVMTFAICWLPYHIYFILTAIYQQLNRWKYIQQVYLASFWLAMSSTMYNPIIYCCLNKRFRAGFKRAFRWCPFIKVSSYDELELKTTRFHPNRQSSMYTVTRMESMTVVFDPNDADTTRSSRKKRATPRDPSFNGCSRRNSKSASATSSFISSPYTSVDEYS

348 GPCRs [9] = target: 348 GPCRs (Homo sapiens, UniProt P61073)
[10] = read-out: % GPCR activation compared to TPA, GPR33 (G protein-coupled receptor 33)
[11] = read-out: % GPCR activation compared to TPA, GPR139 (G protein-coupled receptor 139)
[12] = read-out: % GPCR activation compared to TPA, D1 (dopamine receptor D1)
[13] = read-out: % GPCR activation compared to TPA, EDNRA (endothelin receptor type A)
[14] = read-out: % GPCR activation compared to TPA, UTS2R (urotensin 2 receptor)
[15] = read-out: % GPCR activation compared to TPA, GPCR GPR62 (G protein-coupled receptor 62)
[16] = read-out: % GPCR activation compared to TPA, GHSR (growth hormone secretagogue receptor)
[17] = read-out: % GPCR activation compared to TPA, NK3 (tachykinin receptor 3)
[18] = read-out: % GPCR activation compared to TPA, GPCR CXCR4 (chemokine (C-X-C motif) receptor 4)
[19] = GPR33 (G protein-coupled receptor 33), read-out: % GPCR activation compared to TPA
[20] = GPR139 (G protein-coupled receptor 139), read-out: % GPCR activation compared to TPA
[21] = D1 (dopamine receptor D1), read-out: % GPCR activation compared to TPA
[22] = EDNRA (endothelin receptor type A), read-out: % GPCR activation compared to TPA
[23] = UTS2R (urotensin 2 receptor), read-out: % GPCR activation compared to TPA
[24] = GPCR GPR62 (G protein-coupled receptor 62), read-out: % GPCR activation compared to TPA
[25] = GHSR (growth hormone secretagogue receptor), read-out: % GPCR activation compared to TPA
[26] = NK3 (tachykinin receptor 3), read-out: % GPCR activation compared to TPA
[27] = GPCR CXCR4 (chemokine (C-X-C motif) receptor 4), read-out: % GPCR activation compared to TPA

T5 sequence (Q9BZJ7 whole entry): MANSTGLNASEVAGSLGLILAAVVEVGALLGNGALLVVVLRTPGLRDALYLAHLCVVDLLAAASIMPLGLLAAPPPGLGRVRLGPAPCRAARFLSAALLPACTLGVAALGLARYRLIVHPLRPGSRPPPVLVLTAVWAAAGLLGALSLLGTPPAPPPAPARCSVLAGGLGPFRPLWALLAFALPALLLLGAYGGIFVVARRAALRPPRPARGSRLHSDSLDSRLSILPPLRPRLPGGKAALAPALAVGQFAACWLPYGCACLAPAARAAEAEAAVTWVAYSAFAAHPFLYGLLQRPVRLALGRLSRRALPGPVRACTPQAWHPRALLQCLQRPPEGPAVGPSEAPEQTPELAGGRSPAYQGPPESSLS
T6 sequence (Q92847 whole entry): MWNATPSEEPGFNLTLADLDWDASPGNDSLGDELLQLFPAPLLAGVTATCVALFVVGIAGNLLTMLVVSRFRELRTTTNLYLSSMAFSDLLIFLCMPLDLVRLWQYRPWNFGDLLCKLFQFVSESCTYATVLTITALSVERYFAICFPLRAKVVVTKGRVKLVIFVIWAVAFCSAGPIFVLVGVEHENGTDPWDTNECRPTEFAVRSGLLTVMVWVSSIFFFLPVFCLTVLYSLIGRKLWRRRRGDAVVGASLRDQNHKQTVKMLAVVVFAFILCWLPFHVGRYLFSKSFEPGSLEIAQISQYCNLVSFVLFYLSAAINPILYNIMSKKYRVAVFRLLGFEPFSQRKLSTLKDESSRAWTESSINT
348 GPCRs (Homo sapiens, UniProt P21728), sequence (P21728 whole entry): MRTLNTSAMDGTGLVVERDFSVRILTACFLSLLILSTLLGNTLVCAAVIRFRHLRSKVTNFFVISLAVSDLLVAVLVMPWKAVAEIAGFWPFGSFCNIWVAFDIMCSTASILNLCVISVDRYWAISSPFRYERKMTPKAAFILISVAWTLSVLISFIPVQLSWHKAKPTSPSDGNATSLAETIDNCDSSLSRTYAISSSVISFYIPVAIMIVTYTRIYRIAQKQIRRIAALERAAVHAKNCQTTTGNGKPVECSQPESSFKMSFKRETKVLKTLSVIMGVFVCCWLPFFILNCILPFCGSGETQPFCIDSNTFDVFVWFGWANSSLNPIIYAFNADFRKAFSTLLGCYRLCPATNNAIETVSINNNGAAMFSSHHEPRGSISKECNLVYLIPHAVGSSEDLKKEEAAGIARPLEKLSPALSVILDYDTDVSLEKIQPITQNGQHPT
348 GPCRs (Homo sapiens, UniProt P61073), sequence (P61073 whole entry): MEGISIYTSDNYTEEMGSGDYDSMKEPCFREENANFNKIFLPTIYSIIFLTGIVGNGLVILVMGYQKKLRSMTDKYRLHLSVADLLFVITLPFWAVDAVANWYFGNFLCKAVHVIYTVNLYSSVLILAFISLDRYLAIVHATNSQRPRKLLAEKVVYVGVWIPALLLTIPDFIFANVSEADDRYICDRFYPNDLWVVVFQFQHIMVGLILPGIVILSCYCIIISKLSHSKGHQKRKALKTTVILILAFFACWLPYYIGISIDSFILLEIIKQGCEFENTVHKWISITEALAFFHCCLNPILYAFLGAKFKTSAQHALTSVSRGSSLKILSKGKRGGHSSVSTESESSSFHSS

SMILES | activation at 10 µM (348 GPCRs [1]; [10]) [%] | activation at 100 µM (348 GPCRs [2]; [11]) [%] | activation at 10 µM (348 GPCRs [3]; [12]) [%] | activation at 100 µM (348 GPCRs [4]; [13]) [%] | activation at 10 µM (348 GPCRs [5]; [14]) [%] | activation at 10 µM (348 GPCRs [6]; [15]) [%] | activation at 10 µM (348 GPCRs [7]; [16]) [%] | activation at 10 µM (348 GPCRs [8]; [17]) [%] | activation at 10 µM (348 GPCRs [9]; [18]) [%] | activation at 10 µM (348 GPCRs [1]; [19]) [%] | activation at 100 µM (348 GPCRs [2]; [20]) [%] | activation at 10 µM (348 GPCRs [3]; [21]) [%] | activation at 100 µM (348 GPCRs [4]; [22]) [%] | activation at 10 µM (348 GPCRs [5]; [23]) [%] | activation at 10 µM (348 GPCRs [6]; [24]) [%] | activation at 10 µM (348 GPCRs [7]; [25]) [%] | activation at 10 µM (348 GPCRs [8]; [26]) [%] | activation at 10 µM (348 GPCRs [9]; [27]) [%] | activation at 100 µM (348 GPCRs [6]; GPCR GPR62 (G protein-coupled receptor 62), 100μM, read-out: % GPCR activation compared to TPA) [%] | activation at 100 µM (348 GPCRs [9]; GPCR CXCR4 (chemokine (C-X-C motif) receptor 4), 100μM, read-out: % GPCR activation compared to TPA) [%]
CC(C)OC(=O)[C@H](C)N[P@](=O)(OC[C@H]1O[C@@H](n2ccc(=O)[nH]c2=O)[C@](C)(F)[C@@H]1O)Oc1ccccc1 [sofosbuvir] | -2.13 | -27.2 | -0.068 | 2.91 | -2.85 | 1.52 | -0.354 | -1.94 | 1.3 |  |  |  |  |  |  |  |  |  |  | 
CC(C)C(=O)OC[C@H]1O[C@@H](n2ccc(NO)nc2=O)[C@H](O)[C@@H]1O [molnupiravir] |  |  |  |  |  |  |  |  |  | -3.96 | -23.9 | 1.11 | 0.536 | -8.44 | -0.851 | 0.166 | -1.59 | -1.55 |  | 
NC(=O)c1nc(F)cnc1O [favipiravir, 6-fluoro-3-hydroxy-2-pyrazinecarboxamide] |  |  |  |  |  |  |  |  |  | -0.127 | -7.28 | -0.0785 | 0.818 | -4.11 |  | -3.33 | -0.777 |  | -1.63 | -0.773
N#C[C@@]1(c2ccc3c(N)ncnn23)O[C@H](CO)[C@@H](O)[C@H]1O [GS441524] |  |  |  |  |  |  |  |  |  | 3.02 | -6.35 | 0.291 | 2.17 | -11.4 | -0.286 | -4.16 | -0.811 | -0.228 |  | 
CCC(CC)COC(=O)[C@H](C)N[P@](=O)(OC[C@H]1O[C@@](C#N)(c2ccc3c(N)ncnn23)[C@H](O)[C@@H]1O)Oc1ccccc1 [remdesivir] | 2.55 | 2.27 | 4.77 | -0.597 | 46.9 | 0.871 | 12.2 | -0.179 | 1.64 |  |  |  |  |  |  |  |  |  |  | 

Source: paper PMC10175918 (Communications Biology, 2023)
